This passage reports melting point results from US8048893B2, “Pyrazolyl derivatives, preparation process and intermediates of this process as medicinal products and pharmaceutical compositions containing them” (Aventis Pharma SA, priority 2003, dated 2011).

The structures appear in SMILES notation.

On to `Cl.Cl.Oc1nn(CCN2CCCCCC2)cc1-c1ccccc1`, for which the melting point (usually the temperature, or range, at which the solid turns liquid) was 228 °C (dec.). `CC(Cn1cc(-c2ccccc2)c(O)n1)N(C)C.Cl.Cl` (stereo not shown): the melting point amounted to 189 °C. For the molecule `Cl.Cl.Oc1nn(CCN2CC3CCC2C3)cc1-c1ccccc1` (stereo not shown), the melting point is 173 °C (dec.). With `CN1CCCC(Cn2cc(-c3ccccc3)c(O)n2)C1` (stereo not shown) [Example 27, 1-(1-Methylpiperidin-3-ylmethyl)-4-phenyl-1H-pyrazol-3-ol] the figure was 132 °C; with `Cc1c(-c2ccccc2)c(O)nn1CCN1CCCCC1.Cl.Cl`, 222 °C.

In turn, `NC(=O)c1ccccc1-c1cnn(CCN2CCCCC2)c1` [Example 72, 2-[1-(2-Piperidin-1-ylethyl)-1H-pyrazol-4-yl]benzamide] had a melting point of 168 °C. As to `CS(=O)(=O)Nc1nn(CCN2CCCCC2)cc1-c1ccccc1` [Example 25, N-[4-Phenyl-1-(2-piperidin-1-ylethyl)-1H-pyrazol-3-yl]-methanesulfonamide], the melting point was found to be 121 °C.
